# Test: LD50 (lethal dose 50%) value
# Details: rat, in vivo; insecticide as such; subjects typically rats
# Experimental: According to one aspect of the present invention, an insecticidal coating composition for use on cellulosic substrates is provided comprising a polyvinyl acetate emulsion; a vinyl acetate ethylene copolymer emulsion; and an insecticide having an LD50 value of between about 14,500 to about 15,500 mg/kg. By “LD50” value, it is meant “lethal dose 50%” value, which indicates the quantity of a substance, which, when administered to a population of subjects (typically rats), will cause 50% of the subjects to perish.
smiles,measurement,value
"CC1(C)[C@H](C(=O)O[C@H](C#N)c2cccc(Oc3ccccc3)c2)[C@@H]1C=C(Br)Br [deltamethrin, (S)-cyano-3-phenoxybenzyl(1R)-cis-3-(2,2-dibromovinyl)-2,2-dimethylcyclopropane carboxylate]",LD50,~15000 mg/kg
